Measurements as given in patent publication US9283199B2, “Halogenated aliphatic carboxylic acids, oligomers and/or polymers thereof and their use in devitalizing external and internal neoplasms” (Cimas Limited, priority 2009, dated 2016).
Read-outs that look alike come from different tables or passages of the source.

Legend:
[1] = cited from earlier work
[2] = in vivo; cited from earlier work
[3] = in vivo; cited from earlier work; remark: listed apart in the source
[4] = test system: benign, viral, pre-malignant, non-metastasizing malignant and mucosal tumor lesions; experiment: Clinical study of topical DPA / DPA oligomer treatment of skin pathologies, long term follow-up (Example 1); type: in vivo, human; conditions: all tumor types, 2-8 years follow-up
Description: Patients suffering from benign tumors, viral warts or mucosal membraneus tumors were administered with the tetramer form of DPA. In some cases, DPA, as a monomer, was used. Patients suffering from premalignant or malignant tumors were administered with longer oligomers of DPA.
In most cases, the DPA monomer or oligomer was administered only once and without anesthesia or other special conditions. Only in cases of patients suffering from Recklinghausen disease (a multiple form of peripheral Neurofibromatosis), when the number of skin tumor lesions was more than 100, multiple treatment sessions were performed. […]
The safety of DPA oligomer treatment was assessed by evaluating the treated skin lesion appearance, local skin reaction, vital sign measurements, adverse events and concomitant medications taken by the patient. […]
At the 3-week, 6-week and 12-week post-treatment visit(s), a clinical assessment was performed to determine whether treated lesions were visible at the target site. Pigmented lesions, suspected of being malignant, were further evaluated microscopically by the excision of a biopsy sample with a 3 mm margin from the lesion, using the radioelectro technique, and histopathologically examining the sample for evidence of residual or recurrence of tumor. […]

[5] = Storage stability of DPA; type: physicochemical; conditions: stored in sealed brown glass containers between −4° C. and +50° C.

For `CC(Cl)(Cl)C(=O)O` [DPA, 2,2-Dichloropropanoic acid], the “solubility in water” value ([1]; DPA and all of its known breakdown products) is listed as “dissolve easily in water”, the solubility in water ([1]; at 25° C.) is listed as 90 g/100 ml and the “solubility in organic solvents and lipids” value [1] is listed as “insoluble”. For the same compound, the “accumulation in animal tissues” value [2] was “does not build up in animal tissues”, the “half-life in human blood” value [3] was 36 to 72 h and the “Very good result (++++) %” value ([4]; Total) was 82.1%. The “satisfactory level of clinical results observed, % of the tumors” value [4] was 99.1% and the “chemoanalytical and biological (efficacy) stability” value [5] was “at least 5 years”.
